Molecular target: T1, EPHA5 (Homo sapiens, UniProt P54756)
T1 construct: purchased Thermo Fisher Scientific (Life Technologies) SelectScreen
Assay: SelectScreen Z'LYTE
Format: biochemical
How it was run: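 NU5455 was profiled across the SelectScreen Broad panel of kinase activity and binding assays. Z'LYTE reactions such as CSF1R ran at apparent Km ATP, while the Adapta CAMK1 assay used ATP listed as 10. Values are given as percent.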

T1 sequence (P54756 25-1037): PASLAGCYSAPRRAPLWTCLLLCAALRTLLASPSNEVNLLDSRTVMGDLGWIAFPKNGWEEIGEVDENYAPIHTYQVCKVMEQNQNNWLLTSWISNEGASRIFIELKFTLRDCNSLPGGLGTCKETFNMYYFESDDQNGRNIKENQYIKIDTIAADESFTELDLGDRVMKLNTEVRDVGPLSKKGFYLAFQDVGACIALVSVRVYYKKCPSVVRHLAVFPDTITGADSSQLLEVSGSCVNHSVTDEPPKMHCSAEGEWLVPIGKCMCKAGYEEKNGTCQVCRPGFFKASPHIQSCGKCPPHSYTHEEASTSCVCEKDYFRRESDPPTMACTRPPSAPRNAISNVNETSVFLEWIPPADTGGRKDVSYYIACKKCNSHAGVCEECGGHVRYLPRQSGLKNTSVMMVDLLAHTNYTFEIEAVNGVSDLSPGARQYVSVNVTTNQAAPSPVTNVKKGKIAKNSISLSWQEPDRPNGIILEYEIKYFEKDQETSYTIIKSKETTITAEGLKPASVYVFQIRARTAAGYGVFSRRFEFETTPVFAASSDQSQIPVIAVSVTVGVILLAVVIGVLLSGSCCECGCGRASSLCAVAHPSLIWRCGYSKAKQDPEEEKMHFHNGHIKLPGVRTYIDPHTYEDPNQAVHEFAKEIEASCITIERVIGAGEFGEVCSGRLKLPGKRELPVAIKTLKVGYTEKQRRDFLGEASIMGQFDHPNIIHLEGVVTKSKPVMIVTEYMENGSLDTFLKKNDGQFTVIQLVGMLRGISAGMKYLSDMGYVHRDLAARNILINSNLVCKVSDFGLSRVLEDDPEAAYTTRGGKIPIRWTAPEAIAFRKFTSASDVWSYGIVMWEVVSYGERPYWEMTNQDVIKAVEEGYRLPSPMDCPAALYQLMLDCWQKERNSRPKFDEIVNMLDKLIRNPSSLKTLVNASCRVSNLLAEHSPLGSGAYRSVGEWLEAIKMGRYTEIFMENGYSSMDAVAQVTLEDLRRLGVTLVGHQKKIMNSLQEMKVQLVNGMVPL

## CN(C(=O)CN1CCOCC1)c1ccc2sc3c(-c4cccc5c(=O)cc(N6CC7CCC(C6)O7)oc45)cccc3c2c1 [NU5455]
  inhibition at 1 µM: 5.1%

From publication PMC6934184, “Selective DNA-PKcs inhibition extends the therapeutic index of localized radiotherapy and chemotherapy” (The Journal of Clinical Investigation, 2019)
